Conditions: 303.15 K, Liquid, Vibrating tube method

FC(C(F)(F)F)C(F)(F)F [1,1,1,2,3,3,3-heptafluoropropane]
Conditions	mass density [kg/m3]
15975 kPa	1462
16006 kPa	1462.4
16038 kPa	1462.4
16079 kPa	1462.6
16111 kPa	1462.8
16152 kPa	1462.9
16184 kPa	1463
16220 kPa	1463.2
16252 kPa	1463.4
16288 kPa	1463.6
16325 kPa	1463.8
16349 kPa	1463.9
16386 kPa	1464
16414 kPa	1464.1
16443 kPa	1464.3
16485 kPa	1464.4
16513 kPa	1464.6
16550 kPa	1464.7
16577 kPa	1464.8
16623 kPa	1465.1
16650 kPa	1465.1
16678 kPa	1465.2
16706 kPa	1465.4
16742 kPa	1465.5
16775 kPa	1465.7
16802 kPa	1465.8
16832 kPa	1466
16862 kPa	1466
16887 kPa	1466.2
16920 kPa	1466.4
16953 kPa	1466.4
16978 kPa	1466.6
17021 kPa	1466.7
17046 kPa	1466.9
17084 kPa	1467
17113 kPa	1467.2
17142 kPa	1467.4
17167 kPa	1467.5
17196 kPa	1467.5
17235 kPa	1467.8
17260 kPa	1467.9
17289 kPa	1468
17322 kPa	1468.1
17360 kPa	1468.3
17393 kPa	1468.3
17423 kPa	1468.6
17451 kPa	1468.7
17484 kPa	1468.8
17509 kPa	1468.9
17544 kPa	1469.1
17577 kPa	1469.3
17603 kPa	1469.3
17633 kPa	1469.4
17662 kPa	1469.6
17718 kPa	1469.9
17752 kPa	1470
17778 kPa	1470
17808 kPa	1470.1
17837 kPa	1470.3
17867 kPa	1470.6
17892 kPa	1470.5
17928 kPa	1470.7
17958 kPa	1471
17996 kPa	1471
18026 kPa	1471.1
18056 kPa	1471.2
18091 kPa	1471.3
18125 kPa	1471.6
18151 kPa	1471.7
18185 kPa	1471.7
18211 kPa	1471.9
18238 kPa	1472.2
18277 kPa	1472.1
18303 kPa	1472.4
18333 kPa	1472.5
18359 kPa	1472.6
18389 kPa	1472.6
18419 kPa	1472.9
18449 kPa	1473
18480 kPa	1472.9
18511 kPa	1473.3
18545 kPa	1473.3
18580 kPa	1473.5
18615 kPa	1473.7
18646 kPa	1473.8
18677 kPa	1473.8
18707 kPa	1474.1
18737 kPa	1474.2
18777 kPa	1474.3
18803 kPa	1474.4
18835 kPa	1474.5
18861 kPa	1474.7
18888 kPa	1474.9
18913 kPa	1475
18954 kPa	1475.1
18980 kPa	1475.2
19017 kPa	1475.4
19044 kPa	1475.5
19075 kPa	1475.6
19101 kPa	1475.6
19144 kPa	1475.8
19166 kPa	1476
19200 kPa	1476.1
19235 kPa	1476.3
19270 kPa	1476.4
19296 kPa	1476.6
19327 kPa	1476.6
19353 kPa	1476.7
19385 kPa	1476.8
19420 kPa	1477
19455 kPa	1477.2
19490 kPa	1477.3
19517 kPa	1477.4
19553 kPa	1477.5
19592 kPa	1477.7
19624 kPa	1477.9
19655 kPa	1478.1
19691 kPa	1478.1
19717 kPa	1478.1
19758 kPa	1478.3
19785 kPa	1478.6
19828 kPa	1478.6
19860 kPa	1478.8
19891 kPa	1478.9
19918 kPa	1479
19949 kPa	1479.2
19981 kPa	1479.4
20016 kPa	1479.4
20044 kPa	1479.6
20076 kPa	1479.9
20107 kPa	1479.9
20152 kPa	1480
20179 kPa	1480.1
20216 kPa	1480.2
20244 kPa	1480.4
20285 kPa	1480.6
20325 kPa	1480.6
20357 kPa	1480.8
20394 kPa	1481
20436 kPa	1481.2
20463 kPa	1481.3
20491 kPa	1481.3
20539 kPa	1481.6
20570 kPa	1481.7
20597 kPa	1481.8
20637 kPa	1481.9
20668 kPa	1482
20701 kPa	1482.2
20728 kPa	1482.4
20769 kPa	1482.6
20802 kPa	1482.7
20880 kPa	1482.9
21049 kPa	1483.6
21082 kPa	1483.8
21120 kPa	1483.8
21152 kPa	1484.1
21193 kPa	1484.2
21217 kPa	1484.4
21250 kPa	1484.5
21278 kPa	1484.6
21322 kPa	1484.7
21360 kPa	1484.9
21388 kPa	1485
21421 kPa	1485.1
21458 kPa	1485.3
21490 kPa	1485.4
21523 kPa	1485.5
21556 kPa	1485.5
21593 kPa	1485.8
21626 kPa	1486
22323 kPa	1488.6
22447 kPa	1489.1
22485 kPa	1489.3
22514 kPa	1489.4
22548 kPa	1489.4
22580 kPa	1489.5
22613 kPa	1489.9
22643 kPa	1489.7
22673 kPa	1490
22707 kPa	1490.1
22733 kPa	1490.2
22771 kPa	1490.3
22801 kPa	1490.4
22828 kPa	1490.5
22863 kPa	1490.7
22899 kPa	1490.8
22934 kPa	1490.9
22959 kPa	1491.1
22997 kPa	1491.3
23032 kPa	1491.4
23062 kPa	1491.6
23102 kPa	1491.5
23128 kPa	1491.8
23159 kPa	1491.7
23186 kPa	1491.9
23217 kPa	1492
23249 kPa	1492.1
23281 kPa	1492.3
23307 kPa	1492.3
23342 kPa	1492.6
23364 kPa	1492.6
23395 kPa	1492.8
23431 kPa	1492.8
23462 kPa	1492.9
23497 kPa	1493

From the NIST ThermoML archive (doi:10.1021/je700260f)
